From US20210246455A1, “MULTIPLEX ASSAY” (priority 2017, published 2021)
Entries after “also recorded” stand apart in the source; their conditions may differ. Where two headings read alike, the source gives them in different places. One block for each compound: values may come before it.

Columns and labels:
[1] = tested on: 53BP1 foci (DNA double strand breaks) in U2OS^A:Tox^DUPR reporter cells; experiment: 53BP1-mCerulean foci per nuclei in U2OS^A:Tox^DUPR reporter cells; type: cell-based, human; details: for number of 53BP1 foci per nuclei: exposed for 8 hr, compared to DMSO/vehicle
Protocol: U2OS acceptor cells were co-transfected a construct containing the recombinase B×b1 and a mutlicistronic Tox reporter (named U2OS^A:Tox^DUPR) carrying three fluorescently labeled proteins: 53BP1-mCerulean that binds to DNA double strand breaks, H2B-mCherry and XBP1Δ-Venus which is a UPR stress related sensor. […] NCS inhibits DNA synthesis, G2 cycle arrest, apoptosis. […] Cells were plated in glass bottom well 384 well plates. To evaluate the specificity of the reporter, together with DNA inducers, three other compounds were used as controls. Thapsigargin, which induced UPR-related stress by inhibiting calcium uptake into ER (Ca^2+ is chaperone cofactor so protein folding is inhibited), tunicamycin that is also involved in UPR-related stress by inhibiting glycosylation of newly synthesized proteins, and aphidicolin which inhibits DNA replication in eukaryotes. All compounds were tested in tetraplicates in four ten-fold serial dilutions with data collection 8 hour after compound addition. Images were acquired in a Nikon Ti-E inverted Microscope equipped with motorized stage with autofocus and OkoLab stage top environmental control chamber (supplied with CO2 and temperature controlled for live cell imaging) (FIG. 11A).
The number of 53BP1-mCerulean was used as a metric for double strand breaks and DNA damage. For each assay, the images were analyzed using the open source software CellProfiler for quantification of the number of foci per nuclei and the data generated was further processed to determine compound EC50S.
Image analysis was conducted using the open source software CellProfiler. After importing the images, nuclei were identified from the H2B-mCherry images as primary objects, followed by enhancement of mCerulean structures, and detection of these enhanced structures as objects. The nuclei and the foci are related and the number of children (foci) per nuclei is counted. Data from CellProfiler was exported to Python programming language for further computation.
Using Python, the data was grouped by well and the average number of foci/nuclei determined. The wells that corresponded to the same conditions were grouped. All the data was exported to GraphPad Prism 7.0 software to generate plots. A non-linear regression was used to fit the data and to calculate the concentration where we observe 50% activity of the enhancer (EC50S) (FIG. 11B)

[2] = tested on: Ras-MAPK pathway in HEK293 multicolor stable cell line expressing KRas(G12C), C-Raf, Mek and Erk reporters; experiment: Live-cell imaging of 4-color MAPK reporter cell line (reporter localization); type: cell-based, human; details: for CRaf localization / Erk localization / KRas localization: treated for four or nine hours, relative to control
Protocol: The two-color stable cell lines were plated in 96 well glass-bottom plates overnight and treated with doxycycline at 1 μg/m1 to induce fluorescent reporter expression. Cells were treated with different compounds for four or nine hours. Cells were imaged with an epifluorescence Nikon™microscope with an OKOLab™ incubator system and images were acquired using a Plan Fluor™40× objective and NIS-Elements® software (Nikon™). An analogous procedure, using N-terminal tagged KRas(G12C), CRaf, Mek and Erk cloned into the multicistronic construct, was used to generate monoclonal, inducible 4-color cell lines with approximately balanced reporter construct expression level (FIG. 4 and FIG. 5, control)
The 4-color lines were used to visualize the MAPK pathway in live cells. HEK293 multicolor stable cell line expressing KRas(G12C), C-Raf, Mek and Erk reporters show correct localization of the 4 proteins at the plasma membrane, plasma membrane and cytoplasm, cytoplasm, nucleus, respectively (FIG. 5). Monitoring of cells under the microscope allowed visualization of the response to Ras-MAPK pathway inhibitors. To monitor response to inhibitors, after protein induction cell were treated with: GDC-0879, FR180204, lovastatin and PD0325901 for four or nine hours.

[3] = tested on: MAPK pathway activation (mCherry-Erk nuclear localization) in U2OS MAPK R19 cells expressing K-Ras(wt); experiment: MAPK reporter assay, nuclear versus cytoplasmic mCherry-Erk, U2OS MAPK R19; type: cell-based; details: Homo sapiens, read-out: IC50 (inhibition of nuclear localization of mCherry-Erk)
Protocol: (§1) Three MAPK reporter cell lines were used to visualize the MAPK pathway in live cells and to analyze dose responses of MAPK inhibitors. U2OS MAPK R19, R20 and R21 multicolor stable cell line expressing mCerulean-CRaf, untagged Mek, mCherry-Erk and Venus-KRas (wt, G12C and G12D, respectively) were plated in glass bottom well 96 well plates. Twenty-four hours after plating cells were treated with doxycycline at 1 μg/ml for 5 h to induce fluorescent reporter expression. Monitoring of cells under the microscope allowed visualization of the response to Ras-MAPK pathway inhibitors. Two inhibitors, Trametinib an inhibitor of Mekl and […], inhibitor of Mek1/2 were used in the assay. […]
(§2) For each assay, the images were analyzed using CellProfiler (open source software for image analysis, Kamensty, L. et al., Bioinformatics (2011)) for quantification of the ratio of nuclear versus cytoplasmic Erk fluorescence intensity and the data generated was further processed to determine compound IC50S.
(§3) Image analysis used the open source software CellProfiler. […] The nuclear area of each cell was subtracted from the cytoplasm area to give the final cytoplasm mask. mCherry intensity for the nucleus and the cytoplasm of each cell was calculated from the original mCherry-Erk image and the nuclear to cytoplasm ratio of mCherry intensity was calculated per cell and exported as a HDFS file for analysis. […]

[4] = tested on: MAPK pathway activation (mCherry-Erk nuclear localization) in U2OS MAPK R20 cells expressing K-Ras(G12C); experiment: MAPK reporter assay, nuclear versus cytoplasmic mCherry-Erk, U2OS MAPK R20; type: cell-based; details: Homo sapiens, read-out: IC50 (inhibition of nuclear localization of mCherry-Erk)
Protocol: as §1, §2, §3

[5] = tested on: MAPK pathway activation (mCherry-Erk nuclear localization) in U2OS MAPK R21 cells expressing K-Ras(G12D); experiment: MAPK reporter assay, nuclear versus cytoplasmic mCherry-Erk, U2OS MAPK R21; type: cell-based; details: Homo sapiens, read-out: IC50 (inhibition of nuclear localization of mCherry-Erk)
Protocol: as §1, §2, §3

[6] = tested on: MAPK signaling in cells expressing K-Ras(wt), K-Ras(G12C) and K-Ras(G12D); experiment: Imaging of mCherry-Erk localization in U2OS^A-Tet MAPK R19, R20 and R21 reporter cell lines; type: cell-based, human; details: exposed for 1 hr, compared to DMSO treated cells
Protocol: MAPK pathway inhibitors were tested for their ability to inhibit nuclear localization of mCherry-tagged ERK in three different cell lines expressing K-Ras wild type, K-Ras G12C or K-Ras G12D. To quantify these images we calculated the ratio of nuclear to cytoplasmic ERK in single cells for four images per sample and plotted the resulting values as a histogram.
as §1, §2

[7] = tested on: 53BP1 foci in Tox^DUPR reporter cells pooled with Tox^ORG reporter cells; experiment: Pooled assay, U2OS^A Tox^ORG and Tox^DUPR reporter cells mixed 1:1, 53BP1 foci per nuclei; type: cell-based, human
Protocol: U2OS^A:Tox^DUPR and U2OS^A:Tox^ORG were combined in a pooled assay with an aggregate of […] biosensors and phenotypic readouts (MTS-Venus, H2B-TagBFP, mCherry-LC3, 53BP1-cerulean, XBP1-Venus and H2B-mCherry) where DNA is differently labeled in each of the two reporter cell lines (FIG. 13).
The two U2OS^A Tox^ORG and Tox^DUPR reporter cell lines were mixed 1:1 and plated in 384 well plates 24 h before compound addition. […] NCS inhibits DNA synthesis, G2 cycle arrest, apoptosis. Both compounds are inducers of DNA double strand breaks and consequently increase the number of 53BP1 nuclear foci. Eight hours post compound addition, images were acquired in a Nikon Ti-E inverted Microscope equipped with motorized stage with autofocus and OkoLab stage top environmental control chamber (supplied with CO2 and temperature controlled for live cell imaging) (FIG. 14).

Compound: COc1cc([C@@H]2c3cc4c(cc3[C@@H](O[C@@H]3O[C@@H]5CO[C@@H](C)O[C@H]5[C@H](O)[C@H]3O)[C@H]3COC(=O)[C@H]23)OCO4)cc(OC)c1O [Etoposide]
EC50 ([1]; Homo sapiens, 8 hour after compound addition, read-out: EC50 (number of 53BP1 foci/nuclei)): 161 nM

Compound: Nc1[nH]nc2nnc(-c3c(-c4ccccc4)nn4ccccc34)cc12 [FR180204]
CRaf localization [2]: moderate increase of CRaf levels at the plasma membrane

Compound: CC[C@H](C)C(=O)O[C@H]1C[C@@H](C)C=C2C=C[C@H](C)[C@H](CC[C@@H]3C[C@@H](O)CC(=O)O3)[C@H]21 [Lovastatin]
displacement of KRas from the cell membrane ([2]; ***p<0.0001): significant displacement of KRas from the cell membrane | CRaf localization [2]: C-Raf is not enriched at the membrane | Erk localization [2]: changes its localization to the cytoplasm | KRas localization [2]: absence of KRas at the membrane

Compound: O=C(NOC[C@H](O)CO)c1ccc(F)c(F)c1Nc1ccc(I)cc1F [PD 0329501]
IC50 ([3]; 1 h): 9 nM | IC50 ([4]; 1 h): 13 nM | IC50 ([5]; 1 h): 76 nM | mCherry-Erk localization [6]: increase of mCherry-Erk at the cytoplasm | CRaf localization [2]: none of Mek upstream proteins (KRas and C-Raf) showed alteration in localization | Erk localization [2]: redistribution of the downstream effector, Erk, from the nucleus to the cytoplasm | KRas localization [2]: none of Mek upstream proteins (KRas and C-Raf) showed alteration in localization

IC50 ([3]; cells expressing K-Ras(wt), 1 hour after compound addition): 9 nM | IC50 ([4]; cells expressing K-Ras(G12C), 1 hour after compound addition): 55 nM | IC50 ([5]; cells expressing K-Ras(G12D), 1 hour after compound addition): 28 nM
Compound: CC(=O)Nc1cccc(-n2c(=O)n(C3CC3)c(=O)c3c(Nc4ccc(I)cc4F)n(C)c(=O)c(C)c32)c1 [Trametinib]

Compound: C[C@@]1(CO)[C@H](O)CC[C@@]2(C)[C@H]1CC[C@H]1C[C@@H]3C[C@@]12CC[C@]3(O)CO [aphidicolin]
number of 53BP1 foci per nuclei [1]: do not show any effect in the number of 53BP1 foci

Compound: C/C=C(/C)C(=O)O[C@H]1C(C)=C2[C@H]([C@@H]1OC(=O)CCCCCCC)[C@@](C)(OC(C)=O)C[C@H](OC(=O)CCC)[C@@]1(O)[C@H]2OC(=O)[C@@]1(C)O [thapsigargin, Thapsigargin]
number of 53BP1 foci per nuclei [1]: do not show any effect in the number of 53BP1 foci

Compound: neocarzinostatin [NCS]
EC50 (number of 53BP1 foci/nuclei) ([1]; 8 hour after compound addition): 0.257 µg/mL | number of 53BP1 foci per nuclei [1]: increase in the number of foci per nuclei | EC50 (number of 53BP1 foci/nuclei) ([1]; reporter cells assayed by itself (FIG. 11B)): 257 µg/mL | number of 53BP1 foci per nuclei ([7]; pooled Tox^ORG and Tox^DUPR cells, 8 hr, compared to vehicle): increase in the number of foci/nuclei specifically in Tox^DUPR reporter cells; also recorded: increase in the number of foci per nuclei | EC50 (number of 53BP1 foci/nuclei) ([7]; pooled with other reporter cell lines (FIG. 14), eight hours post compound addition): 376 µg/mL

Compound: tunicamycin
number of 53BP1 foci per nuclei [1]: do not show any effect in the number of 53BP1 foci
